{
  "source": "paper PMC10924921",
  "about": "“Mi-2β promotes immune evasion in melanoma by activating EZH2 methylation” (Nature Communications, 2024)",
  "test_in_all_cases": "biochemical",
  "parameters_in_all_cases": "KINOMEscan active-site competition binding panel (468 kinase assays), per cent of control at 1000 nM",
  "details_in_all_cases": "KINOMEscan per cent of control (binding competition); read-out: Percent Control",
  "key": {"GRK2": {"molecular_target": "GRK2 (Homo sapiens, UniProt P25098)", "from_the_text": "(§1) Figure S7 / Percent Control"}, "MKNK2": {"molecular_target": "MKNK2 (Homo sapiens, UniProt Q9HBH9)", "sequence (Q9HBH9 whole entry)": "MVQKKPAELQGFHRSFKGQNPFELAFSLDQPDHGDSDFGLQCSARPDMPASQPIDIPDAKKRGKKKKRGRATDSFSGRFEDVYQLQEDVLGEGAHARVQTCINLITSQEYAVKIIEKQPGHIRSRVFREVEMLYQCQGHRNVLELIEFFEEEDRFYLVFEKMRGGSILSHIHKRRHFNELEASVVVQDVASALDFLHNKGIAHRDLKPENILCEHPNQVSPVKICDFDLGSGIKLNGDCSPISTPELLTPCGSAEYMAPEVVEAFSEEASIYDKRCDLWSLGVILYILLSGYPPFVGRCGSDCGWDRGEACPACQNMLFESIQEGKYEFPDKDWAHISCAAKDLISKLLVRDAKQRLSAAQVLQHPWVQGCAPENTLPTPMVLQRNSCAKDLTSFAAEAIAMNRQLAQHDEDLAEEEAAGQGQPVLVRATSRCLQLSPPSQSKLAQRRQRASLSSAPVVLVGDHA", "from_the_text": "as §1"}, "PKN2": {"molecular_target": "PKN2 (Homo sapiens, UniProt Q16513)", "from_the_text": "as §1"}, "PIK3CA(H1047L)": {"molecular_target": "PIK3CA(H1047L) (Homo sapiens, UniProt P42336, H1047L)", "from_the_text": "as §1"}, "RIOK1": {"molecular_target": "RIOK1 (Homo sapiens, UniProt Q9BRS2)", "from_the_text": "as §1"}, "BUB1": {"molecular_target": "BUB1 (Homo sapiens, UniProt O43683)", "from_the_text": "as §1"}, "BRK": {"molecular_target": "T1, BRK (Homo sapiens, UniProt Q13882)", "T1 construct": "gene PTK6", "from_the_text": "as §1"}, "ROCK1": {"molecular_target": "ROCK1 (Homo sapiens, UniProt Q13464)", "from_the_text": "as §1"}, "ADCK3": {"molecular_target": "T2, ADCK3 (Homo sapiens, UniProt Q8NI60)", "T2 construct": "gene COQ8A", "from_the_text": "as §1"}, "EPHA6": {"molecular_target": "EPHA6 (Homo sapiens, UniProt Q9UF33)", "from_the_text": "as §1"}, "ERK8": {"molecular_target": "T3, ERK8 (Homo sapiens, UniProt Q8TD08)", "T3 construct": "gene MAPK15", "T3 sequence (Q8TD08 whole entry)": "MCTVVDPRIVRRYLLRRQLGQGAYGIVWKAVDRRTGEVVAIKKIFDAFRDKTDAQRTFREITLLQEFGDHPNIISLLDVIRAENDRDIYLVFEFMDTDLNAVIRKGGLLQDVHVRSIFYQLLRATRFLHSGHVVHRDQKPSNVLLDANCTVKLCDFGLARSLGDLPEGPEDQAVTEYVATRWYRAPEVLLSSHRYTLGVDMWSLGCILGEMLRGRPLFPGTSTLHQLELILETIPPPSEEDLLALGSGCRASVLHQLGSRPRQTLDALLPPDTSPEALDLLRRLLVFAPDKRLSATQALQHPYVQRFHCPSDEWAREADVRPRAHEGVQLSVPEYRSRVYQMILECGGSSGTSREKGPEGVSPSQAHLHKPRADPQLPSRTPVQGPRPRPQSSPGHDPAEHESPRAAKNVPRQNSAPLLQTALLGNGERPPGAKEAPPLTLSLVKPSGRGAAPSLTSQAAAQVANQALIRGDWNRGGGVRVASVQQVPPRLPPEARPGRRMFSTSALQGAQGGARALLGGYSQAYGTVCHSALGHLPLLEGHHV", "from_the_text": "as §1"}, "LOK": {"molecular_target": "T4, LOK (Homo sapiens, UniProt O94804)", "T4 construct": "gene STK10", "from_the_text": "as §1"}, "MEK3": {"molecular_target": "T5, MEK3 (Homo sapiens, UniProt P46734)", "T5 construct": "gene MAP2K3", "T5 sequence (P46734 whole entry)": "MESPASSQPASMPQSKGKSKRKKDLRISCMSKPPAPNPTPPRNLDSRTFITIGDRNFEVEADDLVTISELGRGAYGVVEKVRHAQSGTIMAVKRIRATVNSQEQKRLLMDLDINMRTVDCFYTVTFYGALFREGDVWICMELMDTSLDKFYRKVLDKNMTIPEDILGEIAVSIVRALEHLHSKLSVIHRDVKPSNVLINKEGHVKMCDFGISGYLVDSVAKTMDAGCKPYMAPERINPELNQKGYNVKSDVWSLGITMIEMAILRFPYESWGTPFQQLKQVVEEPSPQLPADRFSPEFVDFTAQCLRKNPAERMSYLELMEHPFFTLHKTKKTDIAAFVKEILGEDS", "from_the_text": "as §1"}, "ERK3": {"molecular_target": "T6, ERK3 (Homo sapiens, UniProt Q16659)", "T6 construct": "gene MAPK6", "T6 sequence (Q16659 whole entry)": "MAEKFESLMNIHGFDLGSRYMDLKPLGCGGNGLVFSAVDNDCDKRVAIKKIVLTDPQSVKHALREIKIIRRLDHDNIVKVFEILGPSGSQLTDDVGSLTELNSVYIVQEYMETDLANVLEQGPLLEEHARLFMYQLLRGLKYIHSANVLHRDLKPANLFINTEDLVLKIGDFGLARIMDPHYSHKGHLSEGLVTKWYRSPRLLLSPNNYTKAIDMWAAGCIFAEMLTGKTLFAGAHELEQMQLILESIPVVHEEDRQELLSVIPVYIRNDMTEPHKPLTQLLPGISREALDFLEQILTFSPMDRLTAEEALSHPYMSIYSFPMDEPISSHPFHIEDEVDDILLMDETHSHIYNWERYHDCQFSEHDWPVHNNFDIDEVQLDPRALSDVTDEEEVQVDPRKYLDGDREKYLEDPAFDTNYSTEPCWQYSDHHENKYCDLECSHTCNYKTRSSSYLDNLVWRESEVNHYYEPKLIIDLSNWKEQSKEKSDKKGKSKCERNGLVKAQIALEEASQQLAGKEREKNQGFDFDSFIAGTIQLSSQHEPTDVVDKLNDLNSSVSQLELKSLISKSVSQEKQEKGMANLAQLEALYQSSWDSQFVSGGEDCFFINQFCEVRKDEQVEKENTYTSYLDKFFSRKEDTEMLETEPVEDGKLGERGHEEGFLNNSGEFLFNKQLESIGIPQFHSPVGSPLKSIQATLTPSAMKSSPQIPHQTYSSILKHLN", "from_the_text": "as §1"}, "AURKC": {"molecular_target": "AURKC (Homo sapiens, UniProt Q9UQB9)", "from_the_text": "as §1"}, "GSK3B": {"molecular_target": "GSK3B (Homo sapiens, UniProt P49841)", "sequence (P49841 whole entry)": "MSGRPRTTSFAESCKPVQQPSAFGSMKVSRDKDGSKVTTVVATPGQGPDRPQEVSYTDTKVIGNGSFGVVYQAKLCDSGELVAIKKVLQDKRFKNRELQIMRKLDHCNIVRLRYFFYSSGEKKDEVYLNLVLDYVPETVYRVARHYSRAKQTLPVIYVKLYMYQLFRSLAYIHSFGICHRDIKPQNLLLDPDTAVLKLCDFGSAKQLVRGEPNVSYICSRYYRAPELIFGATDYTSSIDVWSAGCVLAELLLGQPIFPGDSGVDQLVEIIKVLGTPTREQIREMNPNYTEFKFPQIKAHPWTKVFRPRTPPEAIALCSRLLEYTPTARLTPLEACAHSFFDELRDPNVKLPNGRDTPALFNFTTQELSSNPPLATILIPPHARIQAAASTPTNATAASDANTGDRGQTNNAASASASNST", "from_the_text": "as §1"}, "ABL1-phosphorylated": {"molecular_target": "T7, ABL1-phosphorylated (Homo sapiens, UniProt P00519)", "T7 construct": "phosphorylated", "from_the_text": "as §1"}, "PHKG2": {"molecular_target": "PHKG2 (Homo sapiens, UniProt P15735)", "from_the_text": "as §1"}, "TESK1": {"molecular_target": "TESK1 (Homo sapiens, UniProt Q15569)", "from_the_text": "as §1"}, "EPHB4": {"molecular_target": "EPHB4 (Homo sapiens, UniProt P54760)", "sequence (P54760 whole entry)": "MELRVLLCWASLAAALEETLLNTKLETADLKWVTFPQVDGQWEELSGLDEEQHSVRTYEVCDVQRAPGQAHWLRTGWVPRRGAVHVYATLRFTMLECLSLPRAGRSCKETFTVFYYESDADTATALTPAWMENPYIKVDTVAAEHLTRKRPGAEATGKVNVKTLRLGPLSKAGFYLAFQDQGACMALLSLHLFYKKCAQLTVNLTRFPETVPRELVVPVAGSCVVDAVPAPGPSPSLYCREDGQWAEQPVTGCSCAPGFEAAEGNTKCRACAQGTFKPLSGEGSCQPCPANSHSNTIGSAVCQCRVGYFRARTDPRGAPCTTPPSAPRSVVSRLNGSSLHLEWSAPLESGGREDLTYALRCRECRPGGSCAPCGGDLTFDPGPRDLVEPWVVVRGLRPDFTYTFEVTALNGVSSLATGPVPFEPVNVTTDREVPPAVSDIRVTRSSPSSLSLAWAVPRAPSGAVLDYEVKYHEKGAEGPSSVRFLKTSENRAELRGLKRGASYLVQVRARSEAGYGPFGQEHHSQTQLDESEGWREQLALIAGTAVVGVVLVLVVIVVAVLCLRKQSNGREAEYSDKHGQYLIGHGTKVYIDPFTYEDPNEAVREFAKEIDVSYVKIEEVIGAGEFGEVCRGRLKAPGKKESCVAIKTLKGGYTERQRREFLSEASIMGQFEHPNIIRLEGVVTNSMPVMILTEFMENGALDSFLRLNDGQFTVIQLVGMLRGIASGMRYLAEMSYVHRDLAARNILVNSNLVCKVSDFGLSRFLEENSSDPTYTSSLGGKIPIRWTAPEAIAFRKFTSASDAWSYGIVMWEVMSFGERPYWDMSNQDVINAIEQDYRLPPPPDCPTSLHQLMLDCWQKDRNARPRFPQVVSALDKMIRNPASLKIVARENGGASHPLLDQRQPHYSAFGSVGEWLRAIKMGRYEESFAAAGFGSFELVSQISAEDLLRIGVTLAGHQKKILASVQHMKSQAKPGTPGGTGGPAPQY", "from_the_text": "as §1"}, "DLK": {"molecular_target": "T8, DLK (Homo sapiens, UniProt Q12852)", "T8 construct": "gene MAP3K12", "T8 sequence (Q12852 whole entry)": "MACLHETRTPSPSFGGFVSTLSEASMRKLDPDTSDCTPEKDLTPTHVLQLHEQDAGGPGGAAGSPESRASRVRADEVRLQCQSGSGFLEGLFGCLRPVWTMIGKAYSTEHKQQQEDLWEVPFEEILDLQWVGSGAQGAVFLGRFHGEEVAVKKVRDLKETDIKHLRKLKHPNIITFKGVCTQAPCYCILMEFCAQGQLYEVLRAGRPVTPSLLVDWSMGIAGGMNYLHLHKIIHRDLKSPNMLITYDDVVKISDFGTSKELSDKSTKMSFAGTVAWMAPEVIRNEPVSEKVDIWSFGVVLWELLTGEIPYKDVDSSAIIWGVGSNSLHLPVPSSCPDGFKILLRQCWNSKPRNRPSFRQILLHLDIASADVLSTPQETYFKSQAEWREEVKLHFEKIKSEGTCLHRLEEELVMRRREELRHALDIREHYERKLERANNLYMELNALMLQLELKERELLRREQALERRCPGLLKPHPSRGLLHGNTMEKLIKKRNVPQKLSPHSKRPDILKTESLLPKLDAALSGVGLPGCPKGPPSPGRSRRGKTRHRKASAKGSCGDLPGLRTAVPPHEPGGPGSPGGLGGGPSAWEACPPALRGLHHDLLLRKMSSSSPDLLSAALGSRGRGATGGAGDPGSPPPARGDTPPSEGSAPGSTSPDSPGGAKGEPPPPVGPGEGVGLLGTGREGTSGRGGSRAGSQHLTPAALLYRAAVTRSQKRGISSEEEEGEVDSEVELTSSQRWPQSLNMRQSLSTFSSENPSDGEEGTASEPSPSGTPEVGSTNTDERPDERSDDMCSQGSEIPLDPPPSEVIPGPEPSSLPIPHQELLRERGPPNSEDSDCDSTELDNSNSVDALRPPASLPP", "from_the_text": "as §1"}, "VEGFR2": {"molecular_target": "T9, VEGFR2 (Homo sapiens, UniProt P35968)", "T9 construct": "gene KDR", "from_the_text": "as §1"}, "VPS34": {"molecular_target": "T10, VPS34 (Homo sapiens, UniProt Q8NEB9)", "T10 construct": "gene PIK3C3", "from_the_text": "as §1"}, "MKK7": {"molecular_target": "T11, MKK7 (Homo sapiens, UniProt O14733)", "T11 construct": "gene MAP2K7", "from_the_text": "as §1"}, "SRPK1": {"molecular_target": "SRPK1 (Homo sapiens, UniProt Q96SB4)", "sequence (Q96SB4 whole entry)": "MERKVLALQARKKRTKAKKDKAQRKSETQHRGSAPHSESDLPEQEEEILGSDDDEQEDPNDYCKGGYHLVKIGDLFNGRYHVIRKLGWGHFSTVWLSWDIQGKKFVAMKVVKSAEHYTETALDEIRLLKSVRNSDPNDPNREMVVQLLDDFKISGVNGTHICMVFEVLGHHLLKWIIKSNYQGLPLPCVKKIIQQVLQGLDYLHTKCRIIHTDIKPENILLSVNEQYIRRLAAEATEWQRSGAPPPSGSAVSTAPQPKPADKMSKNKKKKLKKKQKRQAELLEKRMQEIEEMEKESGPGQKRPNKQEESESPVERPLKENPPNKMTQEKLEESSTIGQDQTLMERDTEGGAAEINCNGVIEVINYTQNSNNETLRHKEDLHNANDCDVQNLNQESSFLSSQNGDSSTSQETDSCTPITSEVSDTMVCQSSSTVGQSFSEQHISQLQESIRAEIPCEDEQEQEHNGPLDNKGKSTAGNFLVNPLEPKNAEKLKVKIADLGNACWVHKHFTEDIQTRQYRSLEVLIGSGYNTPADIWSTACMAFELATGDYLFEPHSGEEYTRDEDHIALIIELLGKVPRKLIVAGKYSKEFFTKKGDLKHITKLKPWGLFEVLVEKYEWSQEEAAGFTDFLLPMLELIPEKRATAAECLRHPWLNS", "from_the_text": "as §1"}},
  "data": [
    {"compound": "Cn1c(=O)[nH]c2ccc(-c3cccc(C(=O)NC4CCn5ccnc5C4)c3)cc21", "note": "(stereo not shown) [Z36-MP5]", "values": [
      {"measurement": "remaining binding at 1 µM", "setting": "GRK2", "value": 83, "unit": "%"},
      {"measurement": "remaining binding at 1 µM", "setting": "MKNK2", "value": 82, "unit": "%"},
      {"measurement": "remaining binding at 1 µM", "setting": "PKN2", "value": 98, "unit": "%"},
      {"measurement": "remaining binding at 1 µM", "setting": "PIK3CA(H1047L)", "value": 90, "unit": "%"},
      {"measurement": "remaining binding at 1 µM", "setting": "RIOK1", "value": 47, "unit": "%"},
      {"measurement": "remaining binding at 1 µM", "setting": "BUB1", "value": 73, "unit": "%"},
      {"measurement": "remaining binding at 1 µM", "setting": "BRK", "value": 100, "unit": "%"},
      {"measurement": "remaining binding at 1 µM", "setting": "ROCK1", "value": 54, "unit": "%"},
      {"measurement": "remaining binding at 1 µM", "setting": "ADCK3", "value": 39, "unit": "%"},
      {"measurement": "remaining binding at 1 µM", "setting": "EPHA6", "value": 69, "unit": "%"},
      {"measurement": "remaining binding at 1 µM", "setting": "ERK8", "value": 83, "unit": "%"},
      {"measurement": "remaining binding at 1 µM", "setting": "LOK", "value": 90, "unit": "%"},
      {"measurement": "remaining binding at 1 µM", "setting": "MEK3", "value": 66, "unit": "%"},
      {"measurement": "remaining binding at 1 µM", "setting": "ERK3", "value": 90, "unit": "%"},
      {"measurement": "remaining binding at 1 µM", "setting": "AURKC", "value": 100, "unit": "%"},
      {"measurement": "remaining binding at 1 µM", "setting": "GSK3B", "value": 81, "unit": "%"},
      {"measurement": "remaining binding at 1 µM", "setting": "ABL1-phosphorylated", "value": 51, "unit": "%"},
      {"measurement": "remaining binding at 1 µM", "setting": "PHKG2", "value": 83, "unit": "%"},
      {"measurement": "remaining binding at 1 µM", "setting": "TESK1", "value": 100, "unit": "%"},
      {"measurement": "remaining binding at 1 µM", "setting": "EPHB4", "value": 84, "unit": "%"},
      {"measurement": "remaining binding at 1 µM", "setting": "DLK", "value": 62, "unit": "%"},
      {"measurement": "remaining binding at 1 µM", "setting": "VEGFR2", "value": 56, "unit": "%"},
      {"measurement": "remaining binding at 1 µM", "setting": "VPS34", "value": 49, "unit": "%"},
      {"measurement": "remaining binding at 1 µM", "setting": "MKK7", "value": 72, "unit": "%"},
      {"measurement": "remaining binding at 1 µM", "setting": "SRPK1", "value": 55, "unit": "%"}
    ]}
  ]
}
